In patent US12522598B2, “3-(2-(heteroaryl)-pyridin-4-yl)-5-(trifluoromethyl)-1,2,4-oxadiazole derivatives as HDAC6 inhibitors” (ORYZON GENOMICS, S.A., priority 2019, dated 2026):
Where a name gives a salt, the structure may show the parent alone.

Target: T1, HDAC6 (Homo sapiens, UniProt Q9UBN7)
T1 construct: purchased BPS Bioscience 50006
T1 sequence (Q9UBN7 1-1215): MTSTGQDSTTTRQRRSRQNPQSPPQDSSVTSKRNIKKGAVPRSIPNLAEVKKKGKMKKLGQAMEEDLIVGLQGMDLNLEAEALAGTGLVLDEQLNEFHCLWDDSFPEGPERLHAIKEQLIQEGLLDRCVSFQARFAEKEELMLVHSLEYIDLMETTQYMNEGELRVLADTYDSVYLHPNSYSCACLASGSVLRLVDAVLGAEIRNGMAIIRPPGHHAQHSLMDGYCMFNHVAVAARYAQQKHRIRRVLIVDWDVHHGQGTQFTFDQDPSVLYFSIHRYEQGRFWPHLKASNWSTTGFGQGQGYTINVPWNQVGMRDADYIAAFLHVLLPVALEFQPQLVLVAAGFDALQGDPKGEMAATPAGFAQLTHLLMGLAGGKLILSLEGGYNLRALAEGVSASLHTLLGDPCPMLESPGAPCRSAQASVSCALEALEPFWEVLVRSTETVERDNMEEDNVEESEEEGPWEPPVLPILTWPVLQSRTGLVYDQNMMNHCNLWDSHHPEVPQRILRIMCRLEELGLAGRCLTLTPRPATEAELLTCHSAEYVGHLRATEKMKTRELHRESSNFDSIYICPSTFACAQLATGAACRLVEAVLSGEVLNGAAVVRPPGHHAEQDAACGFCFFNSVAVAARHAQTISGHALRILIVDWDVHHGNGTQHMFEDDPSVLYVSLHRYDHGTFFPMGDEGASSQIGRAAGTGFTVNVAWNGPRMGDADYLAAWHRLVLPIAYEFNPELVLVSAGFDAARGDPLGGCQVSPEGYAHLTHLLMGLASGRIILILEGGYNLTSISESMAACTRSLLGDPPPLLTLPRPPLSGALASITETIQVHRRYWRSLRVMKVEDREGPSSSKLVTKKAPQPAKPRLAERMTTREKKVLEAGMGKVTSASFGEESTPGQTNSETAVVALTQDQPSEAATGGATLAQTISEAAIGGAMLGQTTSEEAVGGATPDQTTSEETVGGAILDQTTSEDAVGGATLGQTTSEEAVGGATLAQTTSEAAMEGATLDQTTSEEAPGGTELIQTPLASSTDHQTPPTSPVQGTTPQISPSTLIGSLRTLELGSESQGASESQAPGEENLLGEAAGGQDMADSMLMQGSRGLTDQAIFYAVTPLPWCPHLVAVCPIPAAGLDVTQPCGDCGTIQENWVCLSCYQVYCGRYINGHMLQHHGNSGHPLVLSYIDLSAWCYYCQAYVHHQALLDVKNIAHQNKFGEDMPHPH
Assay: HDAC6 enzyme inhibition assay (fluorimetric)
Assay type: biochemical
Settings: 3 hours preincubation with enzyme, fraction of positive control; for inhibition at 0.1 µM: 0.1 μM test compound, read-out: HDAC6 % inh @ 0.1 μM; for inhibition at 0.3 µM: 0.3 μM test compound, read-out: HDAC6 % inh @ 0.3 μM; for inhibition at 1 µM: 1 μM test compound, read-out: HDAC6 % inh @ 1 μM
Procedure: A fluorimetric assay was used to determine the biochemical activity of the inhibitors on HDAC6 in 96-Well Half Area Black Microplates (Corning #3686)+TopSeal-A Black Sealing Film (Perkin Elmer #6050173). Test compounds were dissolved in DMSO. Half-log serial dilutions of test compounds were prepared in DMSO and then diluted 1:10 in assay buffer (BPS Bioscience #50031).
2.5 μL of enzyme (BPS Bioscience #50006) was incubated with 2.5 μL of test compounds for 3 hours in assay buffer with 0.1 mg/mL Bovine Serum Albumin (Sigma-Aldrich #A7030) at 21° C. in 22.5 μL total volume. The enzymatic reaction was started with the addition of 2.5 μL of a fluorogenic acetylated peptide substrate (BPS Bioscience #50037). The final concentration of enzyme and substrate in the reaction were 8.8 nM and 9 μM, respectively. After 45 minutes of incubation at 37° C., the addition of 25 μL of a development solution (BPS
Bioscience #50030) releases a fluorophore whose amount is proportional to the amount of the deacetylated product. Fluorescence intensity was measured after 15 minutes incubation at 21° C. with a Tecan Infinite F200 microplate reader (excitation 360 nm-emission 460 nm).
The negative control (background) was represented by the reaction mix in the absence of the enzyme (with 0.1% DMSO), while the positive control of deacetylase activity was obtained in the absence of test compounds (with 0.1% DMSO) after background subtraction. Percentage of inhibition was calculated as a fraction of the positive control.

inhibition at 0.1 µM [%] | inhibition at 0.3 µM [%] | inhibition at 1 µM [%] | Structure (SMILES)
75 | 92 | 96 | CN(CC1CC1)C(=O)c1cc2cc(-c3cc(-c4noc(C(F)(F)F)n4)ccn3)ncc2n1C [Example 2, N-(Cyclopropylmethyl)-N,1-dimethyl-5-(4-(5-(trifluoromethyl)-1,2,4-oxadiazol-3-yl)pyridin-2-yl)-1H-pyrrolo[2,3-c]pyridine-2-carboxamide hydrochloride]
28 | 56 | 80 | COCCn1nc(-c2cc(-c3noc(C(F)(F)F)n3)ccn2)c2nccnc21 [Example 1g, 3-(2-(1-(2-Methoxyethyl)-1H-pyrazolo[3,4-b]pyrazin-3-yl)pyridin-4-yl)-5-(trifluoromethyl)-1,2,4-oxadiazole]
79 | 91 | 96 | Cn1c(C(=O)N(CCO)CCO)cc2cc(-c3cc(-c4noc(C(F)(F)F)n4)ccn3)ncc21 [Example 1d, N,N-Bis(2-hydroxyethyl)-1-methyl-5-(4-(5-(trifluoromethyl)-1,2,4-oxadiazol-3-yl)pyridin-2-yl)-1H-pyrrolo[2,3-c]pyridine-2-carboxamide]
